In ChEMBL document CHEMBL1201862, “PubChem BioAssay data set” (2004):
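48-hour exposure; five concentrations; linearly interpolated endpoints. The concentration for 50% growth inhibition is given as GI50.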 The source made the active and inactive calls. Rule as the data show it: active = GI50 up to about 1.1 µM and inactive = higher.

Key:
Assay in all cases: DTP human tumour cell line panel, 48 h
A498 = test system: A498
HL-60 = test system: HL-60
HCT-116 = test system: HCT-116
A549 = test system: A549
UACC-62 = test system: UACC-62
SNB-75 = test system: SNB-75
KM12 = test system: KM12
DU-145 = test system: DU-145
OVCAR-4 = test system: OVCAR-4
EKVX = test system: EKVX
RPMI-8226 = test system: RPMI-8226
786-0 = test system: 786-0
ACHN = test system: ACHN
M14 = test system: M14
SF-268 = test system: SF-268
K562 = test system: K562
NCI/ADR-RES = test system: NCI/ADR-RES
HCC 2998 = test system: HCC 2998
NCI-H226 = test system: NCI-H226
Malme-3M = test system: Malme-3M

Compound | GI50 (A498) | GI50 (HL-60) | GI50 (HCT-116) | GI50 (A549) | GI50 (UACC-62) | GI50 (SNB-75) | GI50 (KM12) | GI50 (DU-145) | GI50 (OVCAR-4) | GI50 (EKVX) | GI50 (RPMI-8226) | GI50 (786-0) | GI50 (ACHN) | GI50 (M14) | GI50 (SF-268) | GI50 (K562) | GI50 (NCI/ADR-RES) | GI50 (HCC 2998) | GI50 (NCI-H226) | GI50 (Malme-3M)
CC(=O)OCCCCN1C(=O)CSc2ccccc21 | > 100 µM (inactive) | > 100 µM (inactive) | > 100 µM (inactive) | > 100 µM (inactive) | > 100 µM (inactive) | > 100 µM (inactive) | > 100 µM (inactive) | > 100 µM (inactive) | > 100 µM (inactive) | > 100 µM (inactive) | > 100 µM (inactive) | > 10 µM (inactive) | > 100 µM (inactive) |  |  |  |  |  |  | 
NC(=O)C(=CNC(=S)c1ccncc1)C(N)=O |  | > 100 µM (inactive) | > 100 µM (inactive) | > 100 µM (inactive) | > 100 µM (inactive) |  | > 100 µM (inactive) | > 100 µM (inactive) | > 100 µM (inactive) | > 100 µM (inactive) | > 100 µM (inactive) | > 100 µM (inactive) | > 100 µM (inactive) | > 100 µM (inactive) | > 100 µM (inactive) | > 100 µM (inactive) | > 100 µM (inactive) | > 100 µM (inactive) | > 100 µM (inactive) | 
CCOC(=O)c1c(N)n(-c2ccccc2)c(=O)n(-c2ccccc2)c1=O |  | > 100 µM (inactive) |  | > 100 µM (inactive) | > 100 µM (inactive) | > 100 µM (inactive) | > 100 µM (inactive) | > 100 µM (inactive) | > 100 µM (inactive) |  | > 100 µM (inactive) | > 100 µM (inactive) | > 100 µM (inactive) | > 100 µM (inactive) | > 100 µM (inactive) | > 100 µM (inactive) |  | > 100 µM (inactive) | > 100 µM (inactive) | > 100 µM (inactive)
CCOC(=O)[C@@H](Cc1ccc(CCl)cc1)NC(C)=O |  | 27 µM (inactive) | 30.3 µM (inactive) | 97.1 µM (inactive) | 15.9 µM (inactive) | 26.6 µM (inactive) | 20.2 µM (inactive) | 38.1 µM (inactive) | 19.9 µM (inactive) | 22.2 µM (inactive) | 22.6 µM (inactive) | 19.1 µM (inactive) | 20.5 µM (inactive) | 24.8 µM (inactive) | 24 µM (inactive) | 34.4 µM (inactive) | 19.9 µM (inactive) | 17.7 µM (inactive) | 28.1 µM (inactive) | 19.2 µM (inactive)
O=NN(CCCl)C(=O)N[C@H]1CC[C@H](CC(=O)O)CC1 | > 100 µM (inactive) | 29.7 µM (inactive) | > 100 µM (inactive) | 87.3 µM (inactive) | 15.4 µM (inactive) | 50.4 µM (inactive) | > 100 µM (inactive) |  | > 100 µM (inactive) | > 46.5 µM (inactive) | 33.1 µM (inactive) | 44 µM (inactive) | > 100 µM (inactive) | > 100 µM (inactive) | 18.5 µM (inactive) | 60.3 µM (inactive) | > 100 µM (inactive) | > 100 µM (inactive) | > 100 µM (inactive) | > 82.2 µM (inactive)
CC1CCc2sc3nc4n(c(=O)c3c2C1)CC(C)S4 (stereo not drawn) |  |  | 23.3 µM (inactive) | 21 µM (inactive) | 16.2 µM (inactive) | 21.5 µM (inactive) | 28.3 µM (inactive) | 28.3 µM (inactive) | 25.5 µM (inactive) | 15.1 µM (inactive) | 30.8 µM (inactive) | 23.1 µM (inactive) | 24.9 µM (inactive) | 25.4 µM (inactive) | 33.6 µM (inactive) | 24.7 µM (inactive) | 30.8 µM (inactive) | 19.7 µM (inactive) | 21.8 µM (inactive) | 25.7 µM (inactive)
COCNC(=NC#N)NCOC | > 100 µM (inactive) | > 68.9 µM (inactive) | > 65.9 µM (inactive) | > 71.9 µM (inactive) | > 100 µM (inactive) | > 100 µM (inactive) | > 52 µM (inactive) |  | > 100 µM (inactive) | > 100 µM (inactive) | > 49.3 µM (inactive) | > 47.2 µM (inactive) | > 100 µM (inactive) | > 100 µM (inactive) | > 100 µM (inactive) | > 64.6 µM (inactive) |  | > 100 µM (inactive) | > 100 µM (inactive) | > 100 µM (inactive)
Cc1cc(Cl)cc2c1NC(=O)C2(O)CC(=O)c1ccc(Br)cc1 (stereo not drawn) | 37.8 µM (inactive) | 16.9 µM (inactive) | 56.9 µM (inactive) | > 100 µM (inactive) | 21.6 µM (inactive) | 45.5 µM (inactive) | 46.9 µM (inactive) |  | 14.2 µM (inactive) | 59.4 µM (inactive) | 35 µM (inactive) | 38.2 µM (inactive) | 39.4 µM (inactive) | 52 µM (inactive) | > 77.8 µM (inactive) | 21.6 µM (inactive) |  | > 100 µM (inactive) | > 100 µM (inactive) | > 100 µM (inactive)
CN(/N=C/c1ccccn1)C1=NCCCCN1 | > 100 µM (inactive) | > 100 µM (inactive) | > 100 µM (inactive) | > 100 µM (inactive) | > 100 µM (inactive) | > 100 µM (inactive) | > 100 µM (inactive) |  | > 100 µM (inactive) | > 100 µM (inactive) | > 100 µM (inactive) | > 100 µM (inactive) | > 100 µM (inactive) | > 100 µM (inactive) | > 100 µM (inactive) | > 100 µM (inactive) | > 100 µM (inactive) | > 100 µM (inactive) | > 100 µM (inactive) | > 100 µM (inactive)
CC1CCC2(OC1)OC1CC3C4CC=C5CC(OC6OC(CO)C(OC7OC(C)C(OC8OC(C)C(O)C(O)C8O)C(O)C7O)C(O)C6OC6OC(C)C(O)C(O)C6O)CCC5(C)C4CCC3(C)C1C2C (stereo not drawn) | 0.291 µM (active) | 0.239 µM (active) | 0.521 µM (active) | 0.312 µM (active) | 0.311 µM (active) | 0.372 µM (active) | 0.16 µM (active) | 1.28 µM (inactive) | 0.275 µM (active) | 0.757 µM (active) | 0.382 µM (active) | 1.07 µM (active) | 1.47 µM (inactive) | 1.05 µM (active) | 0.56 µM (active) | 0.142 µM (active) |  | 0.313 µM (active) | 1.36 µM (inactive) | 0.363 µM (active)
COc1cc(C2=C(C)[C@@H]3CN(CC=C3c3ccc(Cl)cc3)C2)c(S(=O)(=O)O)cc1OC |  |  | > 100 µM (inactive) | > 100 µM (inactive) | > 100 µM (inactive) | > 100 µM (inactive) | > 100 µM (inactive) | > 100 µM (inactive) | > 100 µM (inactive) | > 100 µM (inactive) | > 100 µM (inactive) | > 100 µM (inactive) | > 100 µM (inactive) | > 100 µM (inactive) | > 100 µM (inactive) | > 100 µM (inactive) | > 100 µM (inactive) |  | > 100 µM (inactive) | > 100 µM (inactive)
